Test results taken from patent US8802597B2, “Herbicidal pyrimidines” (E I du Pont de Nemours and Company, priority 2003, dated 2014).

How the values were obtained:
Assay type in all cases: in vivo
[1] = system: Surinam grass (Brachiaria decumbens); test: Test B pre/postemergence
How it was run: (§1)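 Visual rating, 0 (no effect) to 100 (complete control) versus controls, taken 13–15 days after treatment in greenhouse. Compounds formulated in non-phytotoxic solvent plus surfactant; pre: sprayed after seeding; post: plants at 1- to 4-leaf stage, 2–18 cm.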

[2] = system: barnyardgrass (Echinochloa crus-galli); test: Test B pre/postemergence
How it was run: as §1

[3] = system: cocklebur (Xanthium strumarium); test: Test B pre/postemergence
How it was run: as §1

[4] = system: corn (Zea mays); test: Test B pre/postemergence
How it was run: as §1

[5] = system: crabgrass (Digitaria sanguinalis); test: Test B pre/postemergence
How it was run: as §1

[6] = system: giant foxtail (Setaria faberii); test: Test B pre/postemergence
How it was run: as §1

[7] = system: lambsquarters (Chenopodium album); test: Test B pre/postemergence
How it was run: as §1

[8] = system: morningglory (Ipomoea coccinea); test: Test B pre/postemergence
How it was run: as §1

[9] = system: pigweed (Amaranthus retroflexus); test: Test B pre/postemergence
How it was run: as §1

[10] = system: velvetleaf (Abutilon theophrasti); test: Test B pre/postemergence
How it was run: as §1

[11] = system: wheat (Triticum aestivum); test: Test B pre/postemergence
How it was run: as §1

[12] = system: blackgrass (Alopecurus myosuroides); test: Test B postemergence; conditions: for Blackgrass plant response rating: scale 0 to 100 (0 no effect, 100 complete control)
How it was run: as §1

[13] = system: wild oat (Avena fatua); test: Test B postemergence; conditions: for Oat, Wild plant response rating: scale 0 to 100 (0 no effect, 100 complete control)
How it was run: as §1

[14] = system: barnyardgrass (Echinochloa crus-galli); test: Test B flooded paddy test; conditions: Flood
How it was run: (§2)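 Rice, umbrella sedge, duck salad and barnyardgrass grown to 2-leaf stage under flooded paddy conditions and treated with formulated test chemicals. Kept in greenhouse 13–15 days, then visually rated against untreated controls on a 0–100 scale (0 no effect, 100 complete control).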

[15] = system: duck salad (Heteranthera limosa); test: Test B flooded paddy test; conditions: Flood, scale 0 to 100
How it was run: as §2

[16] = system: rice (Oryza sativa); test: Test B flooded paddy test; conditions: Flood, scale 0 to 100
How it was run: as §2

[17] = system: umbrella sedge (Cyperus difformis); test: Test B flooded paddy test; conditions: Flood, scale 0 to 100
How it was run: as §2

[18] = Postemergence, 125 g ai/ha, scale 0 to 100 (0 no effect, 100 complete control)
[19] = Postemergence, 500 g ai/ha, scale 0 to 100
[20] = Preemergence, 125 g ai/ha, scale 0 to 100 (0 no effect, 100 complete control)
[21] = Preemergence, 500 g ai/ha, scale 0 to 100 (0 no effect, 100 complete control)
[22] = Postemergence, 62 g ai/ha, scale 0 to 100 (0 no effect, 100 complete control)
[23] = Preemergence, 62 g ai/ha, scale 0 to 100, 0 no effect, 100 complete control

CN(C)N=Cc1nc(C2CC2)nc(N)c1Br [Compound 50]
Surinam Grass plant response rating [1, 18]: 20 | Plant response rating, Surinam Grass [1, 19]: 60 | Plant response rating, Surinam Grass [1, 20]: 20 | Plant response rating, Surinam Grass [1, 21]: 70 | Barnyardgrass plant response rating [2, 18]: 10 | Plant response rating, Barnyardgrass [2, 19]: 50 | Plant response rating, Barnyardgrass [2, 20]: 30 | Plant response rating, Barnyardgrass [2, 21]: 50 | Cocklebur plant response rating [3, 18]: 90 | Plant response rating, Cocklebur [3, 19]: 90 | Plant response rating, Cocklebur [3, 20]: 80 | Plant response rating, Cocklebur [3, 21]: 90 | Corn plant response rating [4, 18]: 0 | Plant response rating, Corn [4, 19]: 40 | Plant response rating, Corn [4, 20]: 20 | Plant response rating, Corn [4, 21]: 20 | Crabgrass plant response rating [5, 18]: 40 | Plant response rating, Crabgrass [5, 19]: 80 | Plant response rating, Crabgrass [5, 20]: 50 | Plant response rating, Crabgrass [5, 21]: 80 | Foxtail, Giant plant response rating [6, 18]: 20 | Plant response rating, Foxtail, Giant [6, 19]: 70 | Plant response rating, Foxtail, Giant [6, 20]: 10 | Plant response rating, Foxtail, Giant [6, 21]: 40 | Lambsquarters plant response rating [7, 18]: 80 | Plant response rating, Lambsquarters [7, 19]: 90 | Plant response rating, Lambsquarters [7, 20]: 90 | Plant response rating, Lambsquarters [7, 21]: 100 | Morningglory plant response rating [8, 18]: 90 | Plant response rating, Morningglory [8, 19]: 90 | Plant response rating, Morningglory [8, 20]: 80 | Plant response rating, Morningglory [8, 21]: 90 | Pigweed plant response rating [9, 18]: 80 | Plant response rating, Pigweed [9, 19]: 90 | Plant response rating, Pigweed [9, 20]: 70 | Plant response rating, Pigweed [9, 21]: 90 | Velvetleaf plant response rating [10, 18]: 70 | Plant response rating, Velvetleaf [10, 19]: 90 | Plant response rating, Velvetleaf [10, 20]: 80 | Plant response rating, Velvetleaf [10, 21]: 90 | Wheat plant response rating [11, 18]: 30 | Plant response rating, Wheat [11, 19]: 60 | Plant response rating, Wheat [11, 20]: 20 | Plant response rating, Wheat [11, 21]: 40 | Blackgrass plant response rating ([12]; 125 g ai/ha): 30 | Plant response rating, Blackgrass ([12]; 500 g ai/ha, scale 0 to 100): 50 | Oat, Wild plant response rating ([13]; 125 g ai/ha): 30 | Plant response rating, Oat, Wild ([13]; 500 g ai/ha, scale 0 to 100): 60 | Plant response rating, Barnyardgrass ([14]; 1000 g ai/ha, scale 0 (no effect) to 100 (complete control)): 30 | Plant response rating, Ducksalad ([15]; 1000 g ai/ha): 40 | Plant response rating, Rice ([16]; 1000 g ai/ha): 30 | Plant response rating, Sedge, Umbrella ([17]; 1000 g ai/ha): 0

CCCCOC(=O)c1nc(C2CC2)nc(N)c1Cl [Compound 76]
Surinam Grass plant response rating [1, 22]: 70 | Surinam Grass plant response rating [1, 18]: 80 | Plant response rating, Surinam Grass [1, 23]: 70 | Plant response rating, Surinam Grass [1, 20]: 90 | Barnyardgrass plant response rating [2, 22]: 90 | Barnyardgrass plant response rating [2, 18]: 90 | Plant response rating, Barnyardgrass [2, 23]: 40 | Plant response rating, Barnyardgrass [2, 20]: 90 | Cocklebur plant response rating [3, 22]: 60 | Cocklebur plant response rating [3, 18]: 90 | Plant response rating, Cocklebur [3, 23]: 80 | Plant response rating, Cocklebur [3, 20]: 100 | Corn plant response rating [4, 22]: 50 | Corn plant response rating [4, 18]: 70 | Plant response rating, Corn [4, 23]: 70 | Plant response rating, Corn [4, 20]: 80 | Crabgrass plant response rating [5, 22]: 70 | Crabgrass plant response rating [5, 18]: 90 | Plant response rating, Crabgrass [5, 23]: 80 | Plant response rating, Crabgrass [5, 20]: 90 | Foxtail, Giant plant response rating [6, 22]: 60 | Foxtail, Giant plant response rating [6, 18]: 80 | Plant response rating, Foxtail, Giant [6, 23]: 40 | Plant response rating, Foxtail, Giant [6, 20]: 80 | Lambsquarters plant response rating [7, 22]: 100 | Lambsquarters plant response rating [7, 18]: 100 | Plant response rating, Lambsquarters [7, 23]: 90 | Plant response rating, Lambsquarters [7, 20]: 100 | Morningglory plant response rating [8, 22]: 100 | Morningglory plant response rating [8, 18]: 100 | Plant response rating, Morningglory [8, 23]: 100 | Plant response rating, Morningglory [8, 20]: 100 | Pigweed plant response rating [9, 22]: 90 | Pigweed plant response rating [9, 18]: 100 | Plant response rating, Pigweed [9, 23]: 100 | Plant response rating, Pigweed [9, 20]: 100 | Velvetleaf plant response rating [10, 22]: 90 | Velvetleaf plant response rating [10, 18]: 90 | Plant response rating, Velvetleaf [10, 23]: 80 | Plant response rating, Velvetleaf [10, 20]: 90 | Wheat plant response rating [11, 22]: 60 | Wheat plant response rating [11, 18]: 70 | Plant response rating, Wheat [11, 23]: 30 | Plant response rating, Wheat [11, 20]: 70 | Blackgrass plant response rating ([12]; 62 g ai/ha): 50 | Blackgrass plant response rating ([12]; 125 g ai/ha): 60 | Oat, Wild plant response rating ([13]; 62 g ai/ha): 50 | Oat, Wild plant response rating ([13]; 125 g ai/ha): 60 | Plant response rating, Barnyardgrass ([14]; 125 g ai/ha, scale 0 to 100): 0 | Plant response rating, Barnyardgrass ([14]; 500 g ai/ha, scale 0 to 100): 70 | Plant response rating, Ducksalad ([15]; 125 g ai/ha): 0 | Plant response rating, Ducksalad ([15]; 500 g ai/ha): 70 | Plant response rating, Rice ([16]; 125 g ai/ha): 0 | Plant response rating, Rice ([16]; 500 g ai/ha): 50 | Plant response rating, Sedge, Umbrella ([17]; 125 g ai/ha): 30 | Plant response rating, Sedge, Umbrella ([17]; 500 g ai/ha): 70
